From US20230339882A1, “SHP2 INHIBITOR AND COMPOSITION AND APPLICATION THEREOF” (Betta Pharmaceuticals Co., Ltd., priority 2020, published 2023) come the findings set out here.

The target in one assay is SHP2 (Homo sapiens (Human), UniProt Q06124). Briefly: SHP2 allosteric inhibitory enzyme activity assay (DiFMUP fluorescence). It counts as biochemical. To be noted: read-out: SHP2 enzymatic activity IC50. The source says:
Example A: SHP2 Allosteric Inhibitory Enzyme Activity Assay
SHP2 is allosterically activated by binding of a bis-tyrosyl-phosphorylated peptide to its Src homology 2 (SH2) domain. This later activation step results in the release of the autoinhibitory interface of SHP2, which in turn activates the SHP2 protein tyrosine phosphatase (PTP) and is available for substrate recognition and reaction catalysis. The catalytic activity of SHP2 was monitored using the surrogate DiFMUP in a rapid fluorescence assay format.
experiment procedure: • (1) Compound preparation: • The compounds of the present invention (10 mM stock solution) were diluted to appropriate times with 100% DMSO, and the final test concentrations of the compounds of the present invention were 10 µM, 3.3333 µM, 1.1111 µM, 0.3704 µM, 0.1235 µM, 0.0412 µM, 0.0137 µM, 0.0046 µM, 0.0015 µM, 0.00 µM; • (2) Prepare the enzyme reaction working solution: • Perform SHP2 enzymatic assays in 96-well black polystyrene plates (flat bottom, low flange, non-binding surface) (Perki Elmer, Cat#6005270) at room temperature using a final reaction volume of 50 µL and the following assay buffer conditions: 60 mM HEPES, 75 mM NaCl, 75 mM KCl, 0.05% BRIJ-35, 1 mM EDTA, 5 mM DTT. • (3) Enzyme-catalyzed reaction and data monitoring: • Add the compound of the present invention to the corresponding 96-well plate, and set the blank test well without compound and enzyme only with buffer. Thaw SHP2 Activating Peptide (IRS1_pY1172(dPEG8)pY1222) on ice, add 25 µM to each well, then add 0.2 ng of SHP2 protein sample to the corresponding well plate and incubate at room temperature for 1 hour. The surrogate substrate DiFMUP (Invitrogen, Cat #D6567) was added to the reaction and allowed to react for 1 hour at room temperature. Fluorescence signals were monitored using a microplate reader (Envision, Perki Elmer) using excitation and emission wavelengths of 340 nm and […], respectively. • (4) Data analysis: • Calculation Formula: • [formula]
Among them: Conversion_sample is the conversion rate reading of the sample; Conversion_min is the average value of blank control wells, representing the conversion rate readings of wells without enzymatic activity; Conversion_max is the mean ratio of positive control wells, representing the conversion rate readings of wells without compound inhibition. The log(inhibitor) vs. response-Variable slope of the analysis software GraphPad Prism was used to fit the dose-response curve, and the IC50 value of the compound for the enzymatic activity was calculated.

A further assay relates to leukemia cells MV-4-11. In words: Cell proliferation assay, CELL TITER-GLO (CTG) luminescence, MV-4-11. It counts as cell-based. The protocol:
(§1) Example B: Cell Proliferation Assay
(§2) The effects of the compounds of the invention on the proliferation of leukemia cells MV-4-11 and lung cancer cells NCI-H358 were evaluated using in vitro cell assays. The detection method used in the experiment is the CELL TITER-GLO (CTG) luminescence method, which can detect the number of viable cells by quantifying ATP. Because ATP participates in a variety of enzymatic reactions in vivo, it is an indicator of the metabolism of living cells, and its content directly reflects the number and state of cells. During the experiment, CellTiter-Glo™ reagent was added to the cell culture medium to measure the luminescence value. The value is proportional to the amount of ATP, and ATP is positively related to the number of living cells, so the cell viability can be examined by detecting the ATP content.
(§3) experiment procedure: • (1) Cell plating: • Take a bottle of MV-4-11 cells in logarithmic growth phase, resuspend the cells by centrifugation and count them. After adjusting the cell density, they were seeded into a 96-well plate (Corning #3917). After culturing in a 5% CO2 incubator for 24 hrs, the compound of the present invention was added for treatment; • Take a bottle of NCI-H358 cells in logarithmic growth phase, digest and resuspend the cells, count them, adjust the cell density, and inoculate them into a 96-well transparent ultra-low adsorption cell culture plate (Corning #3474), inoculate 2000 cells per well. The plate was placed in an incubator at 37° C. and 5% CO2 for 24 hrs, and then the compound of the present invention was added for treatment; • (2) Cell compound treatment: • An appropriate amount of the compound of the present invention was prepared for cell treatment. The final concentration of the compound from high to low was 1000 nM, 333.3 nM, 111.1 nM, 37.04 nM, 12.35 nM, 4.115 nM, 1.372 nM, 0.4572 nM, 0.1524 nM, and 0 nM. The plate was placed in a 37° C., 5% CO2 incubator for 120 hrs. Only adding medium without cell wells was set as the blank group; the group with compound concentration of 0 nM was the zero-adjusting group. • (3) CTG detection: • After NCI-H358 cells were cultured for 96 hrs, 50 µL of CellTiter-Glo® Luminescent Cell Viability Assay solution was added to each well, shaken gently for 2 mins, and incubated at room temperature for 10 mins. The cell reaction system was transferred to a white-bottomed 96-well plate. Read the detection value of each well on a multi-function microplate reader. • After MV-4-11 cells were cultured for 120 hrs, 50 µL of CellTiter-Glo® Luminescent Cell Viability Assay solution was added to each well, gently shaken for 2 mins, and incubated at room temperature for 10 mins. Check the value. • (4) Data analysis: • Calculate the inhibition rate from the luminescence value readings, • [formula]
(§4) The log(inhibitor) vs. response-Variable slope of GraphPad Prism was fitted to dose-response curves and IC50s of compounds that inhibited cell proliferation were calculated.

Assay [1] deals with lung cancer cells NCI-H358. Briefly: Cell proliferation assay, CELL TITER-GLO (CTG) luminescence, NCI-H358. It counts as cell-based. Conditions: cultured for 96 hrs. The procedure:
as §1, §2, §3, §4
For orientation: In ATP-based viability assays light output follows the ATP content of the culture.

Where [2] appears, read: Homo sapiens, MV4-11, cultured for 120 hrs.
Where [3] appears, read: Homo sapiens, NCI-H358, ultra-low adsorption plate.

The term IC50 denotes the concentration needed to halve the response being measured.

Consider `N#Cc1cccc(OCC#Cc2cnc(N3CCC4(CC3)Cc3ccccc3[C@H]4N)c(CO)n2)c1` [Compound A53, (S)-3-((3-(5-(1-amino-1,3-dihydrospiro[indene-2,4′-piperidin]-1′-yl)-6-(hydroxymethyl)pyrazin-2-yl)prop-2-yn-1-yl)oxy)benzonitrile], for which the IC50 on SHP2 is 3.3 nM; in the assay on leukemia cells MV-4-11 (setting [2]), 8.1 nM; in assay [1] (setting [3]), 27 nM.
“(S)-(3-(1-amino-1,3-dihydrospiro[ indene-2,4′-piperidin]-1′-yl)-6-(3-( 4-morpholinoloxy)prop-1-yn-1-yl )pyrazin-2-yl)methanol [Compound A20]”: the IC50 on SHP2 came out at 3.8 nM; in the assay on leukemia cells MV-4-11 (cultured for 120 hrs) it was 12 nM; in assay [1] (ultra-low adsorption plate), 14 nM.
For `COc1ccc(NCC#Cc2cnc(N3CCC4(CC3)Cc3ccccc3[C@H]4N)c(CO)n2)cc1OC` [Compound A47, (S)-(3-(1-amino-1,3-dihydrospiro [indene-2,4′-piperidin]-1′-yl)-6-(3-((3,4-dimethoxyphenyl)amino)prop-1-yn-1-yl)pyrazin-2-yl)], in that order: 4 nM, 17 nM and 48 nM.
Consider `N[C@@H]1c2ccccc2CC12CCN(c1ncc(C#CCOc3ccc(O)cn3)nc1CO)CC2` [Compound A75, (S)-6-((3-(5-(1-amino-1,3-dihydrospiro[indene-2,4′-piperidin]-1′-yl)-6-(hydroxymethyl)pyrazin-2-yl)prop-2-yn-1-yl)oxy)pyridin-3-ol], for which the IC50 at SHP2 was 7.8 nM; with leukemia cells MV-4-11 (setting [2]), 7.3 nM; in assay [1] (setting [3]), 78 nM.
In the case of `CC(=O)N1CCN(c2ccc(OCC#Cc3cnc(N4CCC5(CC4)Cc4ccccc4[C@H]5N)c(CO)n3)cc2)CC1` [Compound A21, (S)-1-(4-(4-(3-(5-(1-amino-1,3-dihydrospiro [indene-2,4 ‘-piperidine]-1′-yl) -6-(hydroxymethyl)pyrazin-2-yl)prop-2-yn-1-yl)oxy)piperazin-1-yl)ethane-1-one], the IC50 at SHP2 was 2.1 nM; in the assay with leukemia cells MV-4-11 (cultured for 120 hrs), 11 nM; in assay [1] (ultra-low adsorption plate), 12 nM.
The like results for `Nc1cccc(OCC#Cc2cnc(N3CCC4(CC3)Cc3ccccc3[C@H]4N)c(CO)n2)c1` [Compound A03] were, in that order, 1.1 nM, 1.5 nM and 2.5 nM.
As for `N[C@@H]1c2ccccc2CC12CCN(c1ncc(C#CCOc3ccccc3)nc1CO)CC2` [Compound A01, (S)-(3-(1-amino-1,3-dihydrospiro [indene-2,4′-piperidine]-1′-yl)-6-(3-phenoxyprop-1-yn-1-yl)pyrazin-2-yl)methanol], the IC50 on SHP2 is 1.2 nM; with leukemia cells MV-4-11 (setting [2]) it was 2.6 nM; in assay [1] (setting [3]), 7.3 nM.
Regarding `N[C@@H]1c2ccccc2CC12CCN(c1ncc(C#CCOc3ccc4c(c3)CCNC4=O)nc1CO)CC2` [Compound A52, (S)-6-((3-(5-(1-amino-1,3-dihydrospiro[indene-2,4′-piperidin]-1′-yl)-6-(hydroxymethyl)pyrazin-2-yl)prop-2-yn-1-yl)oxy)-3,4-dihydroisoquinolin-1(2H)-one], the IC50 on SHP2 is 1.6 nM; in the assay with leukemia cells MV-4-11 (setting [2]), 1.5 nM; in assay [1] (setting [3]) it was 4.6 nM.
As for `CC(=O)Nc1cccc(NCC#Cc2cnc(N3CCC4(CC3)Cc3ccccc3[C@H]4N)c(CO)n2)c1` [Compound A65, (S)-N-(3-((3-(5-(1-amino-1,3-dihydrospiro[indene-2,4′-piperidin]-1′-yl)-6-(hydroxylmethyl)pyrazin-2-yl)prop-2-yn-1-yl)amino)phenyl)a cetamide], the values for the IC50 (on SHP2; with leukemia cells MV-4-11 (setting [2]); in assay [1] (setting [3])) were 3.5 nM, 2.8 nM and 25 nM, respectively.
Turning to `N[C@@H]1c2ccccc2CC12CCN(c1ncc(C#CCNc3ccc(C(F)(F)F)nc3)nc1CO)CC2` [Compound A63, (S)-(3-(1-amino-1,3-dihydrospiro[indene-2,4′-piperidin]-1′-yl)-6-(3-( (6-(trifluoromethyl)pyridin-3-yl)amino)prop-1-yn-1-yl)pyrazin-2-yl)methanol], the IC50 on SHP2 is 5 nM; with leukemia cells MV-4-11 (setting [2]), 11 nM; in assay [1] (setting [3]), 36 nM.
For `CC(=O)Nc1ccc(OCC#Cc2cnc(N3CCC4(CC3)Cc3ccccc3[C@H]4N)c(CO)n2)cc1` [Compound A08, (S)-N-(4-((3-(5-(1-amino-1,3-dihydrospiro [indene-2,4′-piperidine]-1′-yl) -6-(hydroxymethyl)pyrazin-2-yl)prop-2-yn-1-yl)oxy)phenyl) acetamide], in that order: 3.3 nM, 2.1 nM and 3.8 nM.
For `CNc1ncc(OCC#Cc2cnc(N3CCC4(CC3)Cc3ccccc3[C@H]4N)c(CO)n2)cn1` [Compound A68, (S)-(3-(1-amino-1,3-dihydrospiro[indene-2,4′-piperidin]-1′-yl)-6-(3-( (2-(methylAmino)pyrimidin-5-yl)oxy)prop-1-yn-1-yl)pyrazin-2-yl) methanol], in that order: 2.1 nM, 8.6 nM and 26 nM.
Consider `Cc1nc2cc(OCC#Cc3cnc(N4CCC5(CC4)Cc4ccccc4[C@H]5N)c(CO)n3)ccc2[nH]1` [Compound A73, (S)-(3-(1-amino-1,3-dihydrospiro[indene-2,4′-piperidin]-1′-yl)-6-(3-( (2-methyl-1H-Benzo[d]imidazol-5-yl)oxy)prop-1-yn-1-yl)pyrazin-2-yl)methanol], for which the IC50 on SHP2 worked out at 3.1 nM; in the assay on leukemia cells MV-4-11 (setting [2]), 1.1 nM; in assay [1] (setting [3]) it was 3.4 nM.
For `COc1cccc(SCC#Cc2cnc(N3CCC4(CC3)Cc3ccccc3[C@H]4N)c(CO)n2)c1` [Compound A06, (S)-(3-(1-amino-1,3-dihydrospiro[indene-2,4′-piperidin]-1′-yl)-6-(3-((3-methoxyphenyl)thio)prop-1-yn-1-yl)pyrazin-2-yl)methanol], the results for the IC50 (at SHP2; in the assay with leukemia cells MV-4-11 (setting [2]); in assay [1] (setting [3])) were 6.8 nM, 8 nM and 11 nM, respectively.
Take “(S)-(3-(1-amino-1,3-dihydrospiro[ indene-2,4′-piperidin]-1′-yl)-6-(3-( 3,4-dimethoxyphenoxy)prop-1-yn-1-y 1)pyrazin-2-yl)methanol [Compound A11]”: the IC50 at SHP2 stood at 1.5 nM; with leukemia cells MV-4-11 (cultured for 120 hrs), 2.6 nM; in assay [1] (ultra-low adsorption plate), 6.3 nM.
